In US20200223840A1, “SUBSTITUTED PYRROLIDINE AMIDES III” (Gruenenthal GMBH, priority 2019, published 2020):

Target: T1, human glucocorticoid receptor (Homo sapiens, UniProt P04150)
T1 construct: host or cells: IM9 human lymphoblast cells, cytosol fraction
T1 sequence (P04150 1-777): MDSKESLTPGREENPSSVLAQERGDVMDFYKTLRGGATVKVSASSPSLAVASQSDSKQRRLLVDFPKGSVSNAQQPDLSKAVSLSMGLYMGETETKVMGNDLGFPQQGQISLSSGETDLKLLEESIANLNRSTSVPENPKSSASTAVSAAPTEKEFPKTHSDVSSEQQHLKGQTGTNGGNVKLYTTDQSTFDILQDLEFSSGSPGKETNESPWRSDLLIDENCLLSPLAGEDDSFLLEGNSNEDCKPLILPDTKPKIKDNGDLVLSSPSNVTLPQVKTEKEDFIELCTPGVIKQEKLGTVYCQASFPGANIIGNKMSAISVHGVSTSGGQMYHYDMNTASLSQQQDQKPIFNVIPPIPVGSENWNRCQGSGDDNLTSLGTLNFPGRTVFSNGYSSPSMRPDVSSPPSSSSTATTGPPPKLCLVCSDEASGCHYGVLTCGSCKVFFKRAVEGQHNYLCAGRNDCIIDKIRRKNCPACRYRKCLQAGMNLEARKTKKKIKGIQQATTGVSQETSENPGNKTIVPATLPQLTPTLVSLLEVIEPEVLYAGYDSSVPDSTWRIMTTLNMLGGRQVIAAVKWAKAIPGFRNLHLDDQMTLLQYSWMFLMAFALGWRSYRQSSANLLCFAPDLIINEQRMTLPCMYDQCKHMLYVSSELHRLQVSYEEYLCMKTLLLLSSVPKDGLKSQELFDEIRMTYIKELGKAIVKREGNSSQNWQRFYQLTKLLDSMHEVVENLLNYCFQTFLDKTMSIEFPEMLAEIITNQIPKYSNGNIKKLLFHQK
Assay: Human glucocorticoid receptor (hGR) ligand-binding assay, 3H-dexamethasone, IM9 cytosol
Conditions: read-out: % inhibition hGR at 1 μM
Protocol: Preferably, the glucocortitcoid receptor extracted from cytosol of IM9 cells is used for competitive radioligand binding assays to calculate percentage inhibition of the binding of radiolabeled ligand 3H-dexamethasone at the human glucocorticoid receptor.
The human lymphoblast cell line IM9 (ATCC, Bethesda, Md.) was cultivated in RPMI 1640 media containing 10% fetal bovine serum, penicillin (100 U/ml), streptomycin (100 μg/ml), and 2 mM L-glutamine at […] and 7% CO2 in a humidified incubator. Cells were centrifuged for 10 minutes at 1500 g and were washed in PBS and repelleted. Cell were then resuspended in homogenization buffer consisting of: 10 mM TES, 10 mM sodium molybdate, 1 mM EDTA, pH 7.4, 20 mM 2-mercaptoethanol, and 10% glycerol. Disruption of the cells was performed by nitrogen cavitation using 2×15 minutes at 600 to 750 psi nitrogen in a N2 cavitator at 0° C. The cell preparation was then centrifuged at 27,000 g for 15 minutes, and the resultant supernatant (=cytosol of IM9 cells) was centrifuged at 103,000 g for 60 minutes at 4° C. The amount of protein in the supernatant fraction was determined using a BCA assay kit and aliquots were snap frozen in a dry ice-acetone bath and stored at −70° C. […] 100 μl of the supernatant) was finally assayed for radioactivity by liquid scintillationspectrometry, and percentage inhibition of 3H-dexamethasone binding was calculated.

inhibition at 1 µM: 28%
Compound: Cc1cnc(C(=O)N[C@H]2[C@H](c3ccccc3)N(c3ccc4c(cnn4-c4ccc(=O)n(C)c4)c3)C(=O)C2(C)C)s1 [Example 26, N-[(2S,3R)-4,4-Dimethyl-1-[1-(1-methyl-6-oxo-1H-pyridin-3-yl)-1H-indazol-5-yl]-5-oxo-2-phenyl-pyrrolidin-3-yl]-5-methyl-thiazole-2-carboxylic acid amide]
